Test results taken from patent US20140120180A1, “METAL COMPOUNDS MIXED OR SULPHATED, AS PHOSPHATE BINDERS” (CYTOCHROMA DEVELOPMENT INC., priority 1997, published 2014).
“And” between values parts separate entries of the source, which are not always exact repeats. Identical values can stand only once.

Columns and labels:
[1] = Body weight and faecal hydration of rats fed binder in diet; conditions: rat, in vivo
Protocol: Total faecal samples from each animal were mixed to ensure a homogeneity and duplicate one gram aliquots weighed. The percentage hydration of the stool was calculated following freeze drying to constant weight.
Following feeding with the modified diets for 7 days, animals were transferred to metabowls for collection of total 24 hour faecal and urine excretion.

[2] = Phosphate binding capacity, 3.2 mmol compound in 25 ml 20 mmol l^-1 phosphate buffer (Example 1)
Protocol: In Table 1, the values indicate respective percentage phosphate binding capacity at each of pH3, pH7 and pH8, n indicating the number of trials made for each compound.
The phosphate binding capacity was measured by mixing 3.2 mmol of the compound with 25 ml of 20 mmol l^−1 phosphate buffer for 30 min at 25° C. For all compounds except CT2000, which compounds were dry powders, the compounds were merely weighed and dosed. For CT2000, the slurry was dosed in an amount such as to give an equivalent of 1 g of a powder dried to constant weight at 40° C. Sodium phosphate and sodium hydrogen phosphate were mixed to provide respective phosphate solutions at pH3, 7 and 8 (HCl being added to provide pH3). […] The results are shown in Table 1, in which n refers to the number of observations and the values as the % of phosphate precipitated out of solution, calculated as follows:
where • x=mmol phosphate in solution after precipitation; and • y=mmol phosphate in solution without precipitation.

[3] = Measurement of phosphate binding M4: 1 g in 25 ml 40 mmol l^-1 phosphate buffer, pH 3-8 (Examples 3 and 4)
[4] = Urine and faecal phosphate excretion in rats fed binder in diet; conditions: rat, in vivo
[5] = rat, in vivo
[6] = Phosphate binding in food, Method 3 (food slurry in 0.01 M HCl)
[7] = Phosphate binding capacity Method 2: as Method 1 but 20 mmol l^-1 phosphate buffer, increasing weight of compound
[8] = 3.2 mmol compound, 25 ml 20 mmol l^-1 phosphate buffer, 30 min, 25° C.

Molecule | mean weight gain [1] | percentage phosphate binding capacity, pH 3 [2] | percentage phosphate binding capacity, pH 7 [2] | percentage phosphate binding capacity, pH 8 [2] | increase in phosphate binding at pH 3 compared to pH 8 [3] | Percentage phosphate binding at pH 3 ([3]; pH 3) | Percentage phosphate binding at pH 5 ([3]; pH 5) | Percentage phosphate binding at pH 7 ([3]; pH 7) | Percentage phosphate binding at pH 8 ([3]; pH 8) | Total faecal phosphate [4] | Urine phosphate [4] | Serum aluminium [5] | Serum calcium [5] | Serum iron [5] | Urine aluminium [5] | faecal hydration compared to the controls [1] | other results
O=C([O-])[O-].[Ca+2] [CaCO3, calcium carbonate] | 38-53 grams | 15.3 ± 0.5% | 9.7 ± 1.8% | 2.4 ± 1.8% | 5.9 fold | 69% and 72% | 63% and 70% | 30% and 43% | 8% and 16% | 213 ± 16 μmol g^−1 dry weight faeces | 857 ± 25 µmol | 0.33 ± 0.05 µmol/L | 2.93 ± 0.09 (n = 4)β mmol l^−1 | 41.9 ± 10.8 (n = 4) mmol l^−1 | 0.50 ± 0.21 µg | – | –
O.O.O=S(=O)([O-])[O-].[Ca+2] [CaSO4•2H2O, Calcium Sulphate Dihydrate] | – | – | – | – | – | – | – | – | – | – | – | – | – | – | – | – | Percentage phosphate bound at pH 3 ([3]; pH 3): 0%; Percentage phosphate bound at pH 5 ([3]; pH 5): 0%; Percentage phosphate bound at pH 7 ([3]; pH 7): 57%; Percentage phosphate bound at pH 8 ([3]; pH 8): 89%
[Ce+3].[OH-].[OH-].[OH-] [Ce(OH)3] | – | – | – | – | – | – | – | – | – | – | – | – | – | – | – | – | percentage phosphate binding capacity, pH 3 [2, 8]: 69.8 ± 7.5%; percentage phosphate binding capacity, pH 7 [2, 8]: 57.8 ± 8.9%; percentage phosphate binding capacity, pH 8 [2, 8]: 60.5 ± 1.5%
[Mg+2].[OH-].[OH-] [Mg(OH)2, magnesium hydroxide] | 38-53 grams | 61.1 ± 7.5% | 45.7 ± 5.9% | 12.5 ± 3.7% | 3.7 fold | 81% and 87% | 82% and 80% | 54% and 58% | 17% and 28% | 183 ± 17 μmol g^−1 dry weight faeces | 65 ± 53 µmol | 0.35 ± 0.08 µmol/L | 2.58 ± 0.05 (n = 3) mmol l^−1 | 29.4 ± 7.9 (n = 3) mmol l^−1 | 0.17 ± 0.07 µg | none of the animal groups treated with Mg(OH)2, CT 100 or CTFeMg showed an increase in faecal hydration compared to the controls | phosphate binding in food, comparison [6]: not the best when used in food; phosphate binding at pH 3, comparison [7]: best phosphate binder; urinary magnesium excretion, comparison between groups [5]: significantly higher than the control group or animals treated with any other binder
Al2Mg6(OH)16CO3.4H2O [CT100] | 38-53 grams | – | – | – | – | – | – | – | – | – | – | – | – | – | – | none of the animal groups treated with Mg(OH)2, CT 100 or CTFeMg showed an increase in faecal hydration compared to the controls | –
